Legend:
[1] = system: Rattus norvegicus; assay: Antialzheimer activity in CD rat assessed as reduction in amyloid beta42 level in plasma administered as po for 6 days by alphaLISA analysis relative to total amyloid beta40 level; assay type: functional, organism-based
[2] = Cmax in dog at 10 mg/kg, po; assay type: ADME, organism-based, Canis lupus familiaris; parameters: dose 10 mg/kg, route oral; settings: in vivo
[3] = system: Rattus norvegicus; assay: Antialzheimer activity in po dosed CD rat assessed as reduction in amyloid beta42 level in CSF after 3 hrs by alphaLISA analysis relative to amyloid beta40 level; assay type: functional, organism-based
[4] = Half life in monkey at 3 mg/kg, iv; assay type: ADME, organism-based, Macaca mulatta; parameters: dose 3 mg/kg, route intravenous; settings: rhesus monkey, in vivo
[5] = AUC in rat at 10 mg/kg, po; assay type: ADME, organism-based, Plasma; parameters: dose 10 mg/kg, route oral; settings: plasma
[6] = system: Rattus norvegicus; assay: Antialzheimer activity in po dosed CD rat assessed as reduction in amyloid beta42 level in CSF after 3 hrs by alphaLISA analysis relative to total amyloid beta level; assay type: functional, organism-based
[7] = system: Rattus norvegicus; assay: Antialzheimer activity in CD rat assessed as reduction in amyloid beta40 level in cortex at 10 mg/kg, po after 3 hrs by alphaLISA analysis; assay type: functional; parameters: scale not given: the % may be the effect or the level left
[8] = system: Rattus norvegicus; assay: Antialzheimer activity in CD rat assessed as reduction in amyloid beta42 level in plasma at 10 mg/kg, po after 3 hrs by alphaLISA analysis; assay type: functional; parameters: scale not given: the % may be the effect or the level left
[9] = system: Rattus norvegicus; assay: Antialzheimer activity in CD rat assessed as reduction in total amyloid beta level in plasma at 10 mg/kg, po after 3 hrs by alphaLISA analysis; assay type: functional; parameters: scale not given: the % may be the effect or the level left
[10] = system: Rattus norvegicus; assay: Antialzheimer activity in po dosed CD rat assessed as reduction in amyloid beta42 level in plasma after 3 hrs by alphaLISA analysis relative to amyloid beta40 level; assay type: functional, organism-based
[11] = species on record: Rattus norvegicus; assay: Toxicity in rat assessed as effect on HES-1 expression in jejunum at highest tolerable dose; assay type: organism-based; settings: in vivo
[12] = system: Rattus norvegicus; assay: Antialzheimer activity in CD rat assessed as reduction in amyloid beta42 level in CSF at 10 mg/kg, po after 3 hrs by alphaLISA analysis; assay type: functional; parameters: scale not given: the % may be the effect or the level left
[13] = species on record: Rattus norvegicus; assay: Toxicity in rat assessed as effect on adipsin expression in jejunum at highest tolerable dose; assay type: organism-based; settings: in vivo
[14] = system: Rattus norvegicus; assay: Antialzheimer activity in po dosed CD rat assessed as reduction in amyloid beta42 level in plasma after 3 hrs by alphaLISA analysis relative to total amyloid beta level; assay type: functional, organism-based
[15] = system: Rattus norvegicus; assay: Antialzheimer activity in CD rat assessed as reduction in total amyloid beta level in CSF at 10 mg/kg, po after 3 hrs by alphaLISA analysis; assay type: functional; parameters: scale not given: the % may be the effect or the level left
[16] = Plasma concentration in CD rat at 10 mg/kg, po after 3 hrs; assay type: ADME, organism-based; parameters: dose 10 mg/kg, route oral
[17] = AUC in monkey at 10 mg/kg, po; assay type: ADME, organism-based, Macaca mulatta; parameters: dose 10 mg/kg, route oral; settings: rhesus monkey, plasma
[18] = Cmax in monkey at 10 mg/kg, po; assay type: ADME, organism-based, Macaca mulatta; parameters: dose 10 mg/kg, route oral; settings: rhesus monkey, in vivo
[19] = system: Rattus norvegicus; assay: Antialzheimer activity in CD rat assessed as reduction in amyloid beta40 level in plasma at 10 mg/kg, po after 3 hrs by alphaLISA analysis; assay type: functional; parameters: scale not given: the % may be the effect or the level left
[20] = biological target: Gamma-secretase; assay: Modulation of gamma-secretase-mediated cleavage of human APP Swedish and London mutation expressed in HEK293 cells assessed as reduction of total amyloid beta level after 5 hrs by sandwich immunoassay; assay type: cell-based
[21] = system: Rattus norvegicus; assay: Antialzheimer activity in po dosed CD rat assessed as reduction in amyloid beta42 level in cortex after 3 hrs by alphaLISA analysis relative to total amyloid beta level; assay type: functional, organism-based
[22] = AUC in dog at 10 mg/kg, po; assay type: ADME, organism-based, Canis lupus familiaris, Plasma; parameters: dose 10 mg/kg, route oral; settings: plasma
[23] = system: Rattus norvegicus; assay: Antialzheimer activity in CD rat assessed as reduction in amyloid beta42 level in cortex administered as po for 6 days by alphaLISA analysis relative to total amyloid beta40 level; assay type: functional, organism-based
[24] = Permeability from apical to basolateral side of human Caco2 cells; assay type: ADME, cell-based; settings: Caco-2, read-out: permeability
[25] = biological target: Gamma-secretase; assay: Modulation of gamma-secretase-mediated notch signaling in HEK293 cells transfected with human APP Swedish and London mutation and Notch1 with truncated extracellular EGF repeat domain assessed as production of notch intracellular domain by MSD-based sandwich immunoassay; assay type: cell-based
[26] = biological target: Gamma-secretase; assay: Modulation of gamma-secretase-mediated cleavage of human APP Swedish and London mutation expressed in HEK293 cells assessed as inhibition of amyloid beta42 production after 5 hrs by sandwich immunoassay; assay type: cell-based
[27] = Half life in dog at 3 mg/kg, iv; assay type: ADME, organism-based, Canis lupus familiaris; parameters: dose 3 mg/kg, route intravenous; settings: in vivo
[28] = system: Rattus norvegicus; assay: Antialzheimer activity in CD rat assessed as reduction in amyloid beta42 level in plasma administered as po for 6 days by alphaLISA analysis relative to total amyloid beta level; assay type: functional, organism-based
[29] = species on record: Rattus norvegicus; assay: Toxicity in rat assessed as decrease in body weight at highest tolerable dose; assay type: organism-based; settings: in vivo
[30] = species on record: Canis familiaris; assay: Cardiotoxicity in dog assessed as effect on electrocardiographic QTc interval at compound concentration required for pharmacological effect; assay type: toxicity, organism-based, Canis lupus familiaris; settings: in vivo
[31] = Oral bioavailability in rat at 10 mg/kg; assay type: ADME, organism-based; settings: in vivo
[32] = system: Rattus norvegicus; assay: Antialzheimer activity in po dosed CD rat assessed as reduction in amyloid beta42 level in cortex after 3 hrs by alphaLISA analysis relative to amyloid beta40 level; assay type: functional, organism-based
[33] = Oral bioavailability in monkey at 10 mg/kg; assay type: ADME, organism-based, Macaca mulatta; settings: rhesus monkey, in vivo
[34] = system: Rattus norvegicus; assay: Antialzheimer activity in CD rat assessed as reduction in amyloid beta42 level in cortex administered as po for 6 days by alphaLISA analysis relative to total amyloid beta level; assay type: functional, organism-based
[35] = Volume of distribution at steady state in dog at 3 mg/kg, iv; assay type: ADME, organism-based, Canis lupus familiaris; parameters: dose 3 mg/kg, route intravenous; settings: in vivo, read-out: Vdss
[36] = Clearance in rat at 3 mg/kg, iv; assay type: ADME, organism-based; parameters: dose 3 mg/kg, route intravenous; settings: in vivo
[37] = species on record: Rattus norvegicus; assay: Toxicity in rat assessed as production of goblet cell meta/hyperplasia in ileum at highest tolerable dose; assay type: organism-based; settings: in vivo
[38] = biological target: Gamma-secretase; assay: Modulation of gamma-secretase-mediated cleavage of human APP Swedish and London mutation expressed in HEK293 cells assessed as inhibition of amyloid beta40 production after 5 hrs by sandwich immunoassay; assay type: cell-based
[39] = Clearance in monkey at 3 mg/kg, iv; assay type: ADME, organism-based, Macaca mulatta; parameters: dose 3 mg/kg, route intravenous; settings: rhesus monkey, in vivo
[40] = Cmax in rat at 10 mg/kg, po; assay type: ADME, organism-based; parameters: dose 10 mg/kg, route oral; settings: in vivo
[41] = Clearance in dog at 3 mg/kg, iv; assay type: ADME, organism-based, Canis lupus familiaris; parameters: dose 3 mg/kg, route intravenous; settings: in vivo
[42] = system: Rattus norvegicus; assay: Antialzheimer activity in CD rat assessed as reduction in amyloid beta42 level in CSF administered as po for 6 days by alphaLISA analysis relative to total amyloid beta level; assay type: functional, organism-based
[43] = system: Rattus norvegicus; assay: Antialzheimer activity in CD rat assessed as reduction in amyloid beta42 level in CSF administered as po for 6 days by alphaLISA analysis relative to total amyloid beta40 level; assay type: functional, organism-based
[44] = system: Rattus norvegicus; assay: Antialzheimer activity in CD rat assessed as reduction in amyloid beta42 level in cortex at 10 mg/kg, po after 3 hrs by alphaLISA analysis; assay type: functional; parameters: scale not given: the % may be the effect or the level left
[45] = system: Rattus norvegicus; assay: Antialzheimer activity in CD rat assessed as reduction in amyloid beta40 level in CSF at 10 mg/kg, po after 3 hrs by alphaLISA analysis; assay type: functional; parameters: scale not given: the % may be the effect or the level left
[46] = Volume of distribution at steady state in monkey at 3 mg/kg, iv; assay type: ADME, organism-based, Macaca mulatta; parameters: dose 3 mg/kg, route intravenous; settings: rhesus monkey, in vivo, read-out: Vdss
[47] = Half life in rat at 3 mg/kg, iv; assay type: ADME, organism-based; parameters: dose 3 mg/kg, route intravenous; settings: in vivo
[48] = Ratio of drug level in brain to plasma in CD rat at 10 mg/kg, po after 3 hrs; assay type: ADME, organism-based; parameters: dose 10 mg/kg, route oral; settings: read-out: BPR
[49] = Oral bioavailability in dog at 10 mg/kg; assay type: ADME, organism-based, Canis lupus familiaris; settings: in vivo
[50] = Volume of distribution at steady state in rat at 3 mg/kg, iv; assay type: ADME, organism-based; parameters: dose 3 mg/kg, route intravenous; settings: in vivo, read-out: Vdss
[51] = species on record: Rattus norvegicus; assay: Toxicity in rat assessed as decrease in thymus size at highest tolerable dose; assay type: organism-based; settings: in vivo

COc1cc(/C=C2\CCCN3C2=NO[C@]3(CO)c2ccc(F)cc2)ccc1-n1cnc(C)c1
Activity [1]: Dose-dependent effect
Cmax [2]: 4 µM
Activity [3]: Dose-dependent effect
half-life [4]: 3 h
AUC [5]: 61 µM·h
Activity [6]: Dose-dependent effect
Activity [7]: 77%
Activity [8]: 41%
Activity [9]: 77%
Activity [10]: Dose-dependent effect
Activity [11]: Non-toxic
Activity [12]: 66%
Activity [13]: Non-toxic
Activity [14]: Dose-dependent effect
Activity [15]: 120%
concentration at 3 h [16]: 3.6 µM
AUC [17]: 30 µM·h
Cmax [18]: 8.8 µM
Activity [19]: 44%
IC50 [20]: 14100 nM
Activity [21]: Dose-dependent effect
AUC [22]: 26 µM·h
Activity [23]: Dose-dependent effect
Papp A→B [24]: 30.2 ×10⁻⁶ cm/s
IC50 [25]: > 50000 nM
IC50 [26]: 29 nM
half-life [27]: 1.4 h
Activity [28]: Dose-dependent effect
Activity [29]: Non-toxic
Activity [30]: Non-toxic
bioavailability [31]: 98%
Activity [32]: Dose-dependent effect
bioavailability [33]: 48%
Activity [34]: Dose-dependent effect
Vd [35]: 0.4 L/kg
clearance [36]: 6.1 mL/min/kg
Activity [37]: Non-toxic
IC50 [38]: 170 nM
clearance [39]: 6 mL/min/kg
Cmax [40]: 7.5 µM
clearance [41]: 5 mL/min/kg
Activity [42]: Dose-dependent effect
Activity [43]: Dose-dependent effect
Activity [44]: 37%
Activity [45]: 104%
Vd [46]: 1.4 L/kg
half-life [47]: 3.4 h
Kp at 3 h [48]: 0.15
bioavailability [49]: 38%
Vd [50]: 1.6 L/kg
Activity [51]: Non-toxic
